According to patent US11150234B2, “Method for evaluating taxic behavior in response to odor substance based on olfactory sense in nematodes, and dish and behavior evaluation system used in evaluation method” (priority 2016, dated 2021):

What was measured:
N2 Bristol strains = assay: Taxic behavior evaluation system of third embodiment (5 cm×2 cm×1 mm recess in solid medium covered with plate); assay type: in vivo, Caenorhabditis elegans; conditions: 23° C., IAA diluted 10^−5-fold
Experimental: The taxic behavior based on olfactory sense was evaluated using N2 Bristol strains that are nematode strains. […] After a reagent was mixed using the culture medium composition of the assay plate, followed by autoclaving, an appropriate amount of the reagent was poured into a 9 cm dish, and the solid medium was solidified by cooling while pressing a plastic plate of 5 cm×2 cm×1 mm against the surface. After the solid medium was solidified, the plastic plate was removed, to form a recess with a length of 5 cm, a width of 2 cm, and a depth of 1 mm on the surface of the solid medium. Then, isoamyl alcohol (IAA) diluted 10^-5-fold or nonanone (Nona) diluted 10^-3-fold was arranged at the position shown by the symbol “+” on the right side of FIG. 13, and nematodes cultured at 20° C. for 4 days were arranged at the center (which corresponded to region B in FIG. 13). Thereafter, the taxic behavior of nematodes at 23° C. was observed. The number of nematodes in the regions corresponding to regions A, B, and C in FIG. 13 were counted after a lapse of 0 minutes, 5 minutes, 10 minutes, and 20 minutes. The number of nematodes remaining was calculated as a ratio of the number of nematodes in response to the number of nematodes at 0 minutes at each time. Further, the taxis index was calculated based on the formula [[…])]. Here, N (A) is the number of nematodes that moved to region A, and N (B) is the number of nematodes that moved to region B.

wild type C. elegans = assay: Taxic behavior evaluation through olfactory sense using 5 cm×2 cm rectangular dish, without nematicide; assay type: in vivo, Caenorhabditis elegans; conditions: for taxis index: 10 minutes after dissemination, 1 μL isoamyl alcohol diluted 1000-fold with water or 1 μL nonanone stock solution, average of 5 experiments
Experimental: First, a rectangular dish having a bottom surface of 5 cm×2 cm was fabricated as an example (see FIGS. 1A and B). Nematodes were disseminated into a region defined by two lines at the center of the rectangular dish in the longitudinal direction, and an attractant or a repellent was applied to the region at the left end. […] In this example, isoamyl alcohol was used as an attractant, and nonanone was used as a repellent. Specifically, isoamyl alcohol was diluted 1000-fold with water, and 1 μL thereof was applied to the region at the left end. Further, 1 μL of the stock solution of nonanone was applied to the region at the left end. As the nematodes, wild type C. elegans (10 to 50 nematodes/experiment) were used. […] Specifically, the difference in the number of nematodes between those moved to the region (region indicated by O-mark in FIG. 4, corresponding to region 1 of the first embodiment) located between the region at the left end to which an attractant or a repellent was applied and the region at the center in the longitudinal direction in which the nematodes were disseminated and those moved to the region on the opposite side (region indicated by X-mark in FIG. 4, corresponding to region 2 of the first embodiment) was determined, and the result was divided by the number of all nematodes to determine the taxis index. Taxis Index (Taxis index)={(the number of nematodes in region indicated by symbol “O”)−(the number of nematodes in region indicated by symbol “X”)}/the number of all nematodes The experiment was repeated 5 times, to determine the average of taxis indices and SEM. The taxic behavior was evaluated in the same manner as in Example 1 except that urine (1/20 dilution) of a cancer patient or urine (1/20 dilution) of a healthy individual was used as an attractant or a repellent. […] Urine obtained from a plurality of different cancer patients was used.

[1] = at 5 minutes, nonanone diluted 10^−3-fold

| Compound | taxic behavior observed (N2 Bristol strains; [1]) | taxic behavior observed (N2 Bristol strains; at 20 minutes) | taxis index (wild type C. elegans) | nematodes showing attraction behavior in response to the attractant (wild type C. elegans; 10 minutes, from taxis index) [%] | nematodes showing avoidance behavior in response to the repellent (wild type C. elegans; 10 minutes, from taxis index) [%] |
| --- | --- | --- | --- | --- | --- |
| CC(C)CCO [isoamyl alcohol] | migration behavior | migration behavior | over 0.8 | ≥ 90 |  |
| CCCCCCCC(C)=O [nonanone] | avoidance behavior |  | below −0.8 |  | ≥ 90 |
